Measurements taken from patent US20230122344A1, “ANTAGONISTS OF THE MUSCARINIC ACETYLCHOLINE RECEPTOR M4” (Vanderbilt University, priority 2019, published 2023).

Target: T1, Human M4 (Homo sapiens, UniProt P08173)
T1 construct: expressed in transfected cells; host or cells: CHO-K1 (ATCC), co-transfected with chimeric G protein Gqi5
T1 sequence (P08173 1-479): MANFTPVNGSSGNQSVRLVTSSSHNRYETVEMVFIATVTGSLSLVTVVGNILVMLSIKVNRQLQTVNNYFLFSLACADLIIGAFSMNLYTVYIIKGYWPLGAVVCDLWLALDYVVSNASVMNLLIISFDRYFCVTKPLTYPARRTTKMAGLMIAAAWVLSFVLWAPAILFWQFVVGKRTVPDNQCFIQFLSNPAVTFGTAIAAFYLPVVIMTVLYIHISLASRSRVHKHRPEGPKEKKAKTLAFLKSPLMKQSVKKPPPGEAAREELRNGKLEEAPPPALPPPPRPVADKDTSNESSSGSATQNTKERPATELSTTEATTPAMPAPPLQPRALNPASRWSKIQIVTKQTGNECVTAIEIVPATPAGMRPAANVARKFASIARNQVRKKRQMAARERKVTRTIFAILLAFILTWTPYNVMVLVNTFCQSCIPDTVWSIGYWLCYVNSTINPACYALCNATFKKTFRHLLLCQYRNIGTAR
Assay: mAChR M4 cell-based functional assay (calcium flux, antagonism of EC80 acetylcholine response)
Settings: M4/Gqi5/CHO-K1 cells; for remaining activity at 30 µM: CHO-K1, % ACh maximum at 30 μM, read-out: Human M4 Emin; for IC50: decrease of response elicited by EC80 acetylcholine
Method: Human or rat M4 cDNA, along with the chimeric G protein Gqi5, were transfected into Chinese hamster ovary (CHO-K1) cells purchased from the American Type Culture Collection using Lipofectamine2000. M4/Gqi5/CHO cells were grown in Ham's F-12 medium containing 10% heat-inactivated fetal bovine serum (FBS), 20 mM HEPES, 500 μg/mL G418 sulfate, and 200 μg/mL Hygromycin B.
For high throughput measurement of agonist-evoked increases in intracellular calcium, CHO-K1 cells stably expressing muscarinic receptors were plated in growth medium lacking G418 and hygromycin at 15,000 cells/20 μL/well in Greiner 384-well black-walled, tissue culture (TC)-treated, clear-bottom plates (VWR). Cells were incubated overnight at 37° C. and 5% CO2. The next day, cells were washed using an ELX 405 (BioTek) with assay buffer; the final volume was then aspirated to 20 μL. Next, 20 μL of a 2.3 μM stock of Fluo-4/acetoxymethyl ester (Invitrogen, Carlsbad, Calif.), prepared as a 2.3 mM stock in DMSO and mixed in a 1:1 ratio with 10% (w/v) Pluronic F-127 and diluted in assay buffer, was added to the wells and the cell plates were incubated for 50 min at 37° C. and 5% CO2. Dye was removed by washing with the ELX 405 and the final volume was aspirated to 20 μL. Compound master plates were formatted in a 10 point concentration-response curve (CRC) format (1:3 dilutions) in 100% DMSO with a starting concentration of 10 or 1 mM using a BRAVO liquid handler (Agilent). Test compound CRCs were then transferred to daughter plates (240 nL) using the Echo acoustic plate reformatter (Labcyte, Sunnyvale, Calif.) and then diluted into assay buffer (40 μL) to a 2× stock using a Thermo Fisher Combi (Thermo Fisher Scientific, Waltham, Mass.).
Calcium flux was measured using the Functional Drug Screening System (FDSS) 6000 or 7000 (Hamamatsu Corporation, Tokyo, Japan) as an increase in the fluorescent static ratio. Compounds were applied to cells (20 μL, 2×) using the automated system of the FDSS at 2 seconds into the protocol and the data were collected at 1 Hz. At 143 s, 10 μL of an EC20 concentration of the muscarinic receptor agonist acetylcholine was added (5×), followed by the addition of 12 μL of an EC80 concentration of acetylcholine at the 268 s time point (5×). Agonist activity was analyzed as a concentration-dependent increase in calcium mobilization upon compound addition. Positive allosteric modulator activity was analyzed as a concentration-dependent increase in the EC20 acetylcholine response. Antagonist activity was analyzed as a concentration-dependent decrease in the EC80 acetylcholine response; for the purposes of the tables herein, an IC50 (inhibitory concentration 50) was calculated as a concentration-dependent decrease of the response elicited by an EC80 concentration of acetylcholine. Concentration-response curves were generated using a four-parameter logistical equation in XLFit curve fitting software (IDBS, Bridgewater, N.J.) for Excel (Microsoft, Redmond, Wash.) or Prism (GraphPad Software, Inc., San Diego, Calif.) or the Dotmatics software platform (Dotmatics, Bishop's Stortford, UK).
Compounds were synthesized as described above. Activity (IC50 and Emin) was determined in the mAChR M4 cell-based functional assay as described above and the data are shown in Table 2.

| Compound | remaining activity at 30 µM [%] | IC50 [nM] |
| --- | --- | --- |
| Cc1cc(N[C@H]2C[C@@H]3CN(CC4CCOCC4)C[C@@H]3C2)nnc1-c1ccc2nn(C)cc2c1C [compound 16, (3aR,5s,6aS)-N-(6-(2,4-dimethyl-2H-indazol-5-yl)-5-methylpyridazin-3-yl)-2-((tetrahydro-2H-pyran-4-yl)methyl)octahydrocyclopenta[c]pyrrol-5-amine] | 3 | 1.08 |
| [2H]C([2H])(C1CCOCC1)N1C[C@H]2C[C@H](Nc3cc(C)c(-c4cc(F)ccc4F)nn3)C[C@H]2C1 [compound 17, (3aR,5s,6aS)-N-(6-(2,5-difluorophenyl)-5-methylpyridazin-3-yl)-2-((tetrahydro-2H-pyran-4-yl)methyl-d2)octahydrocyclopenta[c]pyrrol-5-amine] | 3 | 0.58 |
| [2H]C([2H])(C1CCOCC1)N1C[C@H]2C[C@H](Nc3cc(C)c(-c4cc(F)ccc4Cl)nn3)C[C@H]2C1 [compound 18, (3aR,5s,6aS)-N-(6-(2-chloro-5-fluorophenyl)-5-methylpyridazin-3-yl)-2-((tetrahydro-2H-pyran-4-yl)methyl-d2)octahydrocyclopenta[c]pyrrol-5-amine] | 3 | 0.44 |
| [2H]C([2H])(C1CCOCC1)N1C[C@H]2C[C@H](Nc3cc(C)c(-c4ccc5nn(C)cc5c4)nn3)C[C@H]2C1 [compound 19, (3aR,5s,6aS)-N-(5-methyl-6-(2-methyl-2H-indazol-5-yl)pyridazin-3-yl)-2-((tetrahydro-2H-pyran-4-yl)methyl-d2)octahydrocyclopenta[c]pyrrol-5-amine] | 4 | 1.62 |
| [2H]C([2H])(C1CCOCC1)N1C[C@H]2C[C@H](Nc3nnc(-c4cc(F)ccc4C)cc3C)C[C@H]2C1 [compound 20, (3aR,5s,6aS)-N-(6-(5-fluoro-2-methylphenyl)-4-methylpyridazin-3-yl)-2-((tetrahydro-2H-pyran-4-yl)methyl-d2)octahydrocyclopenta[c]pyrrol-5-amine] | 3 | 0.54 |
| [2H]C([2H])(C1CCOCC1)N1C[C@H]2C[C@H](Nc3nnc(-c4cccc(F)c4)cc3C)C[C@H]2C1 [compound 21, (3aR,5s,6aS)-N-(6-(3-fluorophenyl)-4-methylpyridazin-3-yl)-2-((tetrahydro-2H-pyran-4-yl)methyl-d2)octahydrocyclopenta[c]pyrrol-5-amine] | 3 | 1.22 |
| [2H]C([2H])(C1CCOCC1)N1C[C@H]2C[C@H](Nc3nnc(-c4ccc5nn(C)cc5c4)cc3C)C[C@H]2C1 [compound 22, (3aR,5s,6aS)-N-(4-methyl-6-(2-methyl-2H-indazol-5-yl)pyridazin-3-yl)-2-((tetrahydro-2H-pyran-4-yl)methyl-d2)octahydrocyclopenta[c]pyrrol-5-amine] | 4 | 1.82 |
| [2H]C([2H])(C1CCOCC1)N1C[C@H]2C[C@H](Nc3nnc(-c4ccc5nn(C)cc5c4C)cc3C)C[C@H]2C1 [compound 23, (3aR,5s,6aS)-N-(6-(2,4-dimethyl-2H-indazol-5-yl)-4-methylpyridazin-3-yl)-2-((tetrahydro-2H-pyran-4-yl)methyl-d2)octahydrocyclopenta[c]pyrrol-5-amine] | 3 | 0.59 |
| [2H]C([2H])(C1CCOCC1)N1C[C@H]2C[C@H](Nc3nnc(-c4ccccc4)cc3C)C[C@H]2C1 [compound 24, (3aR,5s,6aS)-N-(4-methyl-6-phenylpyridazin-3-yl)-2-((tetrahydro-2H-pyran-4-yl)methyl-d2)octahydrocyclopenta[c]pyrrol-5-amine] | 4 | 1.63 |
| [2H]C([2H])(C1CCOCC1)N1C[C@H]2C[C@H](Nc3nnc(-c4cc(F)ccc4F)cc3C(F)F)C[C@H]2C1 [compound 25, (3aR,5s,6aS)-N-(4-(difluoromethyl)-6-(2,5-difluorophenyl)pyridazin-3-yl)-2-((tetrahydro-2H-pyran-4-yl)methyl-d2)octahydrocyclopenta[c]pyrrol-5-amine] | 3 | 1.68 |
| [2H]C([2H])(C1CCOCC1)N1C[C@H]2C[C@H](Nc3nnc(-c4cc(F)ccc4C)cc3C3CC3)C[C@H]2C1 [compound 26, (3aR,5s,6aS)-N-(4-cyclopropyl-6-(5-fluoro-2-methylphenyl)pyridazin-3-yl)-2-((tetrahydro-2H-pyran-4-yl)methyl-d2)octahydrocyclopenta[c]pyrrol-5-amine] | 3 | 263 |
| [2H]C([2H])(C1CCOCC1)N1C[C@H]2C[C@H](Nc3nnc(-c4cc(F)ccc4F)cc3C3CC3)C[C@H]2C1 [compound 27, (3aR,5s,6aS)-N-(4-cyclopropyl-6-(2,5-difluorophenyl)pyridazin-3-yl)-2-((tetrahydro-2H-pyran-4-yl)methyl-d2)octahydrocyclopenta[c]pyrrol-5-amine] | 4 | 719 |
| [2H]C([2H])(C1CCOCC1)N1C[C@H]2C[C@H](Nc3nnc(N4CCC(F)(F)CC4)cc3C3CC3)C[C@H]2C1 [compound 28, (3aR,5s,6aS)-N-(4-cyclopropyl-6-(4,4-difluoropiperidin-1-yl)pyridazin-3-yl)-2-((tetrahydro-2H-pyran-4-yl)methyl-d2)octahydrocyclopenta[c]pyrrol-5-amine] | 3 | 186 |
| [2H]C([2H])(C1CCOCC1)N1C[C@H]2C[C@H](Nc3nnc(N4CCC(F)(F)CC4)cc3C3CCC3)C[C@H]2C1 [compound 29, (3aR,5s,6aS)-N-(4-cyclobutyl-6-(4,4-difluoropiperidin-1-yl)pyridazin-3-yl)-2-((tetrahydro-2H-pyran-4-yl)methyl-d2)octahydrocyclopenta[c]pyrrol-5-amine] | 2 | 60.7 |
| [2H]C([2H])(C1CCOCC1)N1C[C@H]2C[C@H](Nc3nnc(-c4cc(F)ccc4F)cc3C3CCC3)C[C@H]2C1 [compound 30, (3aR,5s,6aS)-N-(4-cyclobutyl-6-(2,5-difluorophenyl)pyridazin-3-yl)-2-((tetrahydro-2H-pyran-4-yl)methyl-d2)octahydrocyclopenta[c]pyrrol-5-amine] | 2 | 116 |
| [2H]C([2H])(C1CCOCC1)N1C[C@H]2C[C@H](Nc3nnc(-c4cc(F)ccc4C)cc3C3CCC3)C[C@H]2C1 [compound 31, (3aR,5s,6aS)-N-(4-cyclobutyl-6-(5-fluoro-2-methylphenyl)pyridazin-3-yl)-2-((tetrahydro-2H-pyran-4-yl)methyl-d2)octahydrocyclopenta[c]pyrrol-5-amine] | 3 | 34.5 |
